# What was measured:
# [1] = tested on: statin-treated hypertriglyceridemic patients with cardiovascular disease or at high risk for cardiovascular disease; test: REDUCE-IT: time to first occurrence of adjudicated cardiovascular events (primary, secondary, tertiary endpoints), AMR101 4 g/day vs placebo; assay type: in vivo, human
# Source text: The following study, also referred to as the REDUCE-IT clinical trial, was a large cardiovascular (CV) outcome trial designed to assess CV risk reduction benefit of AMR101 treatment (commercially known as VASCEPA®) versus placebo on the 5-point primary composite endpoint: CV death, nonfatal stroke, nonfatal myocardial infarction (MI), coronary revascularizations, or unstable angina requiring hospitalization.
# A multi-center, prospective, randomized, double-blind, placebo-controlled, parallel-group study was performed to evaluate the effect of AMR101 (4 g per day) on cardiovascular health and mortality in hypertriglyceridemic patients with cardiovascular disease or at high risk for cardiovascular disease. The intended expanded indication of the study was treatment with AMR101 as an add-on to statin therapy to reduce the risk of cardiovascular events in patients with clinical cardiovascular disease or with multiple risk factors for cardiovascular disease.
# The primary objective of this study was, in patients at LDL-C goal while on statin therapy, with established cardiovascular disease (CVD) or at high risk for CVD, and hypertriglyceridemia (e.g., fasting triglycerides(TG) ≥200 mg/dL and <500 mg/dL), to evaluate the effect of AMR101 4 g daily on time from randomization to first occurrence of any component of the composite of the following major CV events: CV death; nonfatal MI (including silent MI); electrocardiograms (ECGs) were performed annually for the detection of silent MIs); nonfatal stroke; coronary revascularization; and unstable angina determined to be caused by myocardial ischemia by invasive/non-invasive testing and requiring emergent hospitalization.
# The key secondary objective of this study was to evaluate the effect of AMR101 4 g daily on the time from randomization to the first occurrence of the composite of following major CV events: CV death, nonfatal MI (including silent MI), and nonfatal stroke.
# Other secondary objectives for this study were to evaluate the effect of therapy on time from randomization to the first occurrence of the following individual or composite endpoints: composite of CV death or nonfatal MI (including silent MI); fatal or nonfatal MI (including silent MI); non-elective coronary revascularization represented as the composite of emergent or urgent classifications; CV death; unstable angina determined to be caused by myocardial ischemia by invasive/non-invasive testing and requiring emergent hospitalization; fatal or nonfatal stroke; composite of total mortality, nonfatal MI (including silent MI), or nonfatal stroke; and total mortality.
# Primary Efficacy Endpoint: The primary efficacy endpoint was time from randomization to the first occurrence of the composite of the following clinical events: CV death; nonfatal MI (including silent MI; ECGs were performed annually for the detection of silent MIs); nonfatal stroke; coronary revascularization; and unstable angina determined to be caused by myocardial ischemia by invasive/non-invasive testing and requiring emergent hospitalization. The first occurrence of any of these major adverse vascular events during the follow-up period of the study was included in the incidence.
# Secondary Efficacy Endpoints: The key secondary efficacy endpoint was the time from randomization to the first occurrence of the composite of CV death, nonfatal MI (including silent MI), or nonfatal stroke. […]
# [2] = tested on: TG, non-HDL-C, LDL-C, HDL-C, Apo B, hs-CRP; test: REDUCE-IT: fasting lipid, lipoprotein and inflammatory markers over time; assay type: in vivo, human
# Source text: The key tertiary objectives for this study were to evaluate the effect of AMR101 4 g daily from baseline and percent change form baseline in fasting triglycerides and LDL-C. […]
# [3] = REDUCE-IT ITT, listed as AMR101
# [4] = REDUCE-IT ITT, time to first event
# [5] = vs placebo, listed as Icosapent Ethyl
# [6] = Year 1 (as headed in Table 18), 4 g/day
# [7] = Year 1 (as headed in Table 18), vs placebo
smiles,measurement,setting,value
"CC/C=C\C/C=C\C/C=C\C/C=C\C/C=C\CCCC(=O)OCC [icosapent ethyl, eicosapentaenoic acid ethyl ester]",Amputation for PVD: % of patients,[1]; REDUCE-IT ITT,(0.5%)
same,Cardiac arrest: % of patients,[1]; REDUCE-IT ITT,(0.5%)
same,Cardiac arrhythmias requiring hospitalization of ≥24 hours: % of patients,[1]; REDUCE-IT ITT,(4.6%)
same,Cardiovascular death: HR vs placebo,[1]; REDUCE-IT ITT,0.80
same,Cardiovascular death: patients,[1]; REDUCE-IT ITT,4.3%
same,Carotid revascularization: % of patients,[1]; REDUCE-IT ITT,(0.8%)
same,Coronary revascularization: % of patients,[1]; REDUCE-IT ITT,(9.2%)
same,Elective revascularization: % of patients,[1]; REDUCE-IT ITT,(4.7%)
same,Emergent revascularization: % of patients,[1]; REDUCE-IT ITT,(1.0%)
same,Hemorrhagic stroke: % of patients,[1]; REDUCE-IT ITT,(0.3%)
same,Ischemic stroke: % of patients,[1]; REDUCE-IT ITT,(2.0%)
same,New heart failure requiring hospitalization: % of patients,[1]; REDUCE-IT ITT,(3.4%)
same,New heart failure: % of patients,[1]; REDUCE-IT ITT,(4.1%)
same,Primary endpoint in patients with diabetes at baseline: % of patients,[1]; REDUCE-IT ITT,(18.1%)
same,Salvage revascularization: % of patients,[1]; REDUCE-IT ITT,(0.0%)
same,Sudden cardiac death: % of patients,[1]; REDUCE-IT ITT,(1.5%)
same,Total mortality (death from any cause): patients,[1]; REDUCE-IT ITT,6.7%
same,Total mortality: HR vs placebo,[1]; REDUCE-IT ITT,0.87
same,Transient ischemic attack: % of patients,[1]; REDUCE-IT ITT,(1.6%)
same,Urgent revascularization: % of patients,[1]; REDUCE-IT ITT,(4.4%)
same,Hemorrhagic stroke: % of patients,[1]; [3],0.3%
same,New heart failure: % of patients,[1]; [3],4.1%
same,Key secondary composite endpoint: HR vs placebo,[1]; [4],0.74
same,Primary composite endpoint: HR vs placebo,[1]; [4],0.75
same,New onset of diabetes: % of patients,[1]; patients with diabetes at baseline excluded,(3.8%)
same,Composite of cardiovascular death or nonfatal myocardial infarction: RRR,[1]; vs placebo,25%
same,"Composite of total mortality, nonfatal myocardial infarction, or nonfatal stroke: reduction (RRR)",[1]; vs placebo,23%
same,Key secondary composite endpoint: relative risk reduction,[1]; vs placebo,26%
same,Primary composite endpoint: relative risk reduction,[1]; vs placebo,25%
same,Total mortality: reduction (RRR),[1]; vs placebo,13%
same,Key secondary composite endpoint: relative risk reduction,[1]; [5],26.5%
same,Primary composite endpoint: relative risk reduction,[1]; [5],24.8%
same,LDL cholesterol median change (increase) from baseline,[2]; 4 g/day,0.05 mmol/L
same,LDL-C derived median % change from baseline,"[2]; Last Visit, 4 g/day, ITT",3.1%
same,LDL-C derived median absolute change from baseline,"[2]; Last Visit, 4 g/day, ITT",2.0 mg/dL
same,Reduction in hs-CRP observed in patients from this trial,[2]; REDUCE-IT,40%
same,Apo B median,[2]; [6],80.0 mg/dL
same,hs-CRP median,[2]; [6],1.8 mg/L
same,"Apo B median between group difference, % change from baseline",[2]; [7],−9.7%
same,"Apo B median between group difference, absolute change from baseline",[2]; [7],-8.0 mg/dL
same,"hs-CRP median between group difference, absolute change from baseline",[2]; [7],-0.9 mg/L
same,Triglycerides: median reduction from baseline greater than in placebo group (Hodges-Lehmann),[2]; baseline to one year,19.7%

# — patent publication US20210308089A1, “METHODS OF TREATING AND/OR PREVENTING VIRAL INFECTIONS AND/OR DISEASES CAUSED BY VIRUSES IN A SUBJECT IN NEED THEREOF” (priority 2020, published 2021)
